The numbers were not newly measured in patent US20200308169A1, “HETEROCYCLIC COMPOUNDS AS ANTIBACTERIALS” (JANSSEN SCIENCES IRELAND UNLIMITED COMPANY, priority 2016, published 2020), which cites them from elsewhere.

Structures are written as SMILES. In brackets after ≈: the same amount, converted by molar mass.

The test system of one data set is M. tuberculosis H37Rv. Conditions: strain H37Rv, inside macrophages.
The subject of data set [1] is replicating and non-replicating bacteria. Conditions: both replicating and non-replicating bacteria.

With `CCc1nc2ccc(Cl)cn2c1C(=O)NCc1ccc(N2CCC(c3ccc(OC(F)(F)F)cc3)CC2)cc1` [Q203], the MIC50 in the data set with M. tuberculosis H37Rv is 0.28 nM (≈ 0.156 ng/mL). For the same compound, the “activity against replicating and non-replicating bacteria” value in data set [1] is “highly active”.
